Experimental data: ChEMBL document CHEMBL3507680, “University of Dundee, Gates Library screen for HepG2 cell viability”

Assay: Human HepG2 cell viability assay in 384 well format
Type: toxicity, cell-based
Set-up: dose 125 nL, time 70.5 hour; cytotoxicity at 70.5 h: concentration not given beside the values
Conditions: HepG2 cells, read-out: Inhibition

Row | Compound | cytotoxicity at 70.5 h
1 | CCC(CC)NC(=O)c1ccc2c(c1)C(c1nc[nH]n1)CN2S(C)(=O)=O (configuration not stated) | -7.51%
2 | CCN(CC)[C@@H]1CN(S(=O)(=O)c2cn(C)cn2)[C@@H]2CCCO[C@H]12 | 26.4%
3 | COCC(=O)N1CCC2(CC1)CC(N1CCOCC1)c1ccc(C)cc12 (configuration not stated) | 0.692%
4 | c1ccc(N2CCc3ncnc(C4CC4)c3CC2)nc1 | -12.5%
5 | CS(=O)(=O)N1CC(c2nc[nH]n2)c2cc(C(=O)NC3CCCC3)ccc21 (configuration not stated) | -20.4%
6 | CCc1nc(-c2noc3ccc(C(=O)N(C)CCOC)cc23)co1 | -12.2%
7 | COc1ccc(CN2CCO[C@H]3CN(C(C)=O)CC[C@H]3C2=O)cc1 | 19.5%
8 | CO[C@H]1CN(C(=O)c2ccc3c(c2)OCO3)[C@@H]2COC[C@H]12 | 0.574%
9 | COCC(=O)N1CCC2(CC1)CC(OC)c1ccc(F)cc12 (configuration not stated) | -0.706%
10 | CS(=O)(=O)N1CCN(CC2CC2)c2ncccc2C1 | -9.41%
11 | CCOC1CC2(CCN(C(C)=O)CC2)c2cc(F)ccc21 (configuration not stated) | -3.98%
12 | CC(C)N1[C@H](CN2CCCC2)C[C@@H]2CN(Cc3cnn(C)c3)CC[C@@H]21 | -10.1%
13 | O=C(NCC1CC1)C1CCC2(CN(C(=O)c3ccno3)C2)O1 (configuration not stated) | -13.9%
14 | O=C(c1ccno1)N1CC2(CCC(C(=O)N3CCCC3)O2)C1 (configuration not stated) | -14.7%
15 | N#CCC(=O)NCc1nnc2n1CCN(Cc1ccco1)C2 | -13%
16 | O=C(c1ccco1)N1CC[C@@H]2O[C@@H](COCC3CCOCC3)CC[C@@H]21 | 11.4%
17 | CN(C)C(=O)CN1CCC2(CCCN(c3ncc(F)cn3)C2)C1=O (configuration not stated) | 16.4%
18 | Cn1cc(CN2CCC3(CC2)CCN(Cc2ccccn2)CC3)cn1 | 12%
19 | COCCC(=O)N1CCC2(COCc3cnc(NCC4CC4)nc32)C1 (configuration not stated) | 1.86%
20 | CCN1CC2(CC1=O)CN(C(=O)c1cccs1)CCN(C(=O)N(C)C)C2 (configuration not stated) | -1.77%
21 | Cc1oncc1C(=O)N1CCC2(CCN(Cc3cccc(F)c3)C2=O)C1 (configuration not stated) | -2.01%
22 | c1coc(CN2CC[C@@H]3O[C@@H](COCc4ccncc4)CC[C@@H]32)c1 | 3.57%

Row | Compound | cytotoxicity at 70.5 h
23 | Cc1cnc(C(=O)N2C[C@H]3CN(Cc4cccs4)C[C@H]3C2)cn1 | 8.68%
24 | COc1ncnc2c1CCN(Cc1cccc(C)n1)CC2 | 5.99%
25 | Cc1nc(CN2C(=O)C[C@@H]3[C@@H]2CCN3S(C)(=O)=O)cs1 | -4.41%
26 | COc1nn(C)c2c1CCCN(C(=O)c1ccc(C)c(F)c1)C2 | -101%
27 | O=C1[C@H]2CN(c3ncccn3)C[C@H]2CN1CC1CC1 | -124%
28 | COc1nn(C)c2c1CCCN(C(=O)COc1ccccc1)C2 | -104%
29 | Cn1cc(C(=O)NCc2cn3c(n2)CN(Cc2ccncc2)CC3)cn1 | -7.44%
30 | COc1nn(C)c2c1CCCN(C(=O)c1cccn1C)C2 | -41.9%
31 | COc1nn(C)c2c1CCCN(C(=O)c1ccc[nH]1)C2 | -99.5%
32 | CCCS(=O)(=O)N1CCC2(CC1)CC(Nc1ncccn1)CO2 (configuration not stated) | -99.6%
33 | CCC1=N[C@@]2(CC[C@@H]3CN(C(=O)Nc4ccccc4)C[C@@H]32)C(=O)N1C | -85.8%
34 | COCCC(=O)N1CCC2(CCN(Cc3ccc(OC)c(F)c3)C2)C1 (configuration not stated) | -93.9%
35 | COCC1c2c(cnn2C)CCN1Cc1ccc(C)o1 (configuration not stated) | -18.3%
36 | C[C@H]1C[C@@H]2CCN(C(=O)c3ccncc3)C[C@H]2O1 | -2.95%
37 | CC(=O)N1CCN(C(=O)NC(C)C)CC2(CC(=O)N(C)C2)C1 (configuration not stated) | -13.5%
38 | Cn1nc(C(=O)NCc2cccnc2)c2c1CCS(=O)(=O)C2 | 24.8%
39 | COCC(=O)N1CCC2(CCc3ccc(F)cc32)CC1 | -2.02%
40 | c1c(CN2CCCC2)nc2n1CCNC2 | 9.22%
41 | CCc1cnc(N2C[C@@H](NC(=O)c3cscn3)[C@H]3COC[C@H]32)nc1 | -11.1%
42 | O=C(c1ccccc1)N1CCS(=O)(=O)[C@@H]2CCNCC[C@@H]21 | 3.07%
43 | CN1CCC(c2nnc3ccc(C(=O)N4CCCCC4)cn23)C1 (configuration not stated) | -9.66%
44 | Fc1cnc(N2CCCn3c(nnc3Cn3cccc3)C2)nc1 | 27.5%

Row | Compound | cytotoxicity at 70.5 h
45 | CC(C)CO[C@H]1CN(S(=O)(=O)c2cn(C)cn2)[C@@H]2CCCO[C@H]12 | 18%
46 | O=C(c1cccc(Cl)c1)N1CCCC2(CCCNC2)C1 (configuration not stated) | -1.15%
47 | CC(C)n1nc(CNc2ncccn2)c2c1CN(C1CCOCC1)CC2 | -17.3%
48 | Cc1cccc(N2CCc3ncnc(C4CC4)c3CC2)n1 | -10.3%
49 | O=S(=O)(NC[C@]12COC[C@H]1CN(c1ncc(F)cn1)C2)C1CC1 | 19.1%
50 | CCN1CCOCC12CCN(C(=O)c1ccsc1)CC2 | -7.84%
51 | CCS(=O)(=O)N1CCCC2(CCCN2Cc2cccc(F)c2)C1 (configuration not stated) | -8.06%
52 | CC(=O)N1CC[C@H]2[C@H](C[C@@H](Cn3cncn3)N2c2nccs2)C1 | -8.31%
53 | CCn1ncc2c1C(COCC1CC1)N(C(=O)c1ccncn1)CC2 (configuration not stated) | -11.3%
54 | CN1CCO[C@H]2CN(C(=O)c3ccncc3F)C[C@H]21 | -3.39%
55 | Cn1ccnc1CN1CCc2ncnc(N3CCCC3)c2CC1 | -3.33%
56 | COCCN1CCC12CCN(C(=O)c1ccsc1)CC2 | -11.4%
57 | O=C(c1nc2c(o1)CN(CC1CC1)C2)N1CCCC1 | -13.1%
58 | CO[C@H]1CN(Cc2ccc(C)o2)[C@@H]2CCCO[C@H]12 | 13.3%
59 | CCOCC1CN(S(=O)(=O)CC)Cc2cnn(CC3CC3)c21 (configuration not stated) | 6.24%
60 | c1cncc(CN2Cc3nccn3CC(Cn3cncn3)C2)c1 (configuration not stated) | 0.12%
61 | c1csc(CN2Cc3nccn3CC(Cn3cncn3)C2)c1 (configuration not stated) | 2.43%
62 | CCc1ccc(CN2Cc3nccn3CC(Cn3cncn3)C2)o1 (configuration not stated) | 2.9%
63 | CCOCC1CN(Cc2ccco2)Cc2nccn2C1 (configuration not stated) | 3.52%
64 | Cc1cccc(CN2C(=O)CO[C@@H]3CN(C4CCOCC4)C[C@H]32)c1 | 0.326%
65 | O=C(c1ccc(F)cc1)N1CCC2(CCN(Cc3ccccn3)C2=O)C1 (configuration not stated) | -5.2%
66 | Cc1ccc(CN2Cc3nccn3CC(Cn3cncn3)C2)s1 (configuration not stated) | -1.32%

Row | Compound | cytotoxicity at 70.5 h
67 | O=C(NC[C@H]1OC[C@@H]2CN(Cc3ccco3)CC[C@@H]21)c1cscn1 | 0.732%
68 | Cc1cccc(CN2CCc3ncnc(C4CC4)c3CC2)n1 | 5.72%
69 | Cc1nc(CN2C(=O)CC[C@@H]3[C@H]2CCN3C2CCOC2)cs1 (some centres not stated) | 1.29%
70 | COc1ccc(CN2CCc3ncnc(C4CC4)c3CC2)cc1 | 1.6%
71 | Cn1ccc(C(=O)NC2CCC23CCN(CC2CCOCC2)CC3)c1 (configuration not stated) | 3.91%
72 | CO[C@@H]1CO[C@@]2(CCCN(Cc3nc(C)cs3)C2)C1 | -1.7%
73 | O=c1ccc2c(n1CC1CCOCC1)CCN(Cc1ccoc1)CC2 | 49.3%
74 | c1cnc(NC2COC3(CCN(Cc4cc[nH]n4)CC3)C2)nc1 (configuration not stated) | -99.2%
75 | COCCN1CCn2cc(CNC(=O)c3cnn(C)c3)nc2C1 | -38%
76 | COCCC(=O)N1CCCC2(CCCN2Cc2ccccc2F)C1 (configuration not stated) | -107%
77 | Cc1nc(COC[C@@H]2CC[C@H]3[C@H](CCN3c3ccccn3)O2)cs1 | -90.1%
78 | c1cnc(NC2COC3(CCN(Cc4cccs4)CC3)C2)nc1 (configuration not stated) | -97%
79 | CCCS(=O)(=O)N1CCC2(CN(c3ccccc3)C(=O)CN2C)C1 (configuration not stated) | -87.7%
80 | O=C1[C@H]2CN(c3ncccn3)C[C@H]2CN1CCN1CCCC1 | -47.2%
81 | O=C(NCCCO)c1cc(-c2cc[nH]n2)n2ccccc12 | -102%
82 | CN(C)C(=O)COC[C@@H]1CC[C@H]2[C@H](CCN2c2ncccn2)O1 | -66.5%
83 | c1ccc(CN2CCc3c(CNc4nccs4)n[nH]c3C2)nc1 | -16.9%
84 | Cc1oncc1C(=O)N1C[C@H](OCc2ccccn2)[C@H]2OCCC[C@H]21 | -11.5%
85 | CN(C)C(=O)CC1CC2(CCN(Cc3ccoc3)CC2)c2ccccc21 (configuration not stated) | -2.19%
86 | COCC(=O)N1C[C@@H](OCc2ccncc2)[C@@H]2OCCC[C@@H]21 | 52.2%
87 | CC(C)C(=O)N1CCN(Cc2cnn(C)c2)CC2(CC(=O)N(C)C2)C1 (configuration not stated) | -13.2%
88 | CCOCC1CN(Cc2nccs2)Cc2nn(CC3CC3)cc21 (configuration not stated) | -9.99%

Row | Compound | cytotoxicity at 70.5 h
89 | Cc1noc(C)c1CN1CCc2c(CNc3nccs3)n[nH]c2C1 | -12.5%
90 | O=C1COC2(CCN(S(=O)(=O)C3CC3)CC2)CN1c1cccnc1 | 40.1%
91 | Fc1cnc(N2CCCn3c(CN4CCOCC4)nnc3C2)nc1 | 25.5%
92 | Cn1nc(CN2CCOCC2)c2c1CN(Cc1ccsc1)C2 | -5.85%
93 | Cc1ccc(CN2C[C@@H](N(C)C)[C@H]3OCCC[C@H]32)o1 | 1.56%
94 | Cc1ccc(CN2CC[C@H]3[C@H]2CC(=O)N3c2cccnc2)o1 | 8.92%
95 | CCOCC1CN(CCN(C)C)Cc2cnn(CC3CCCC3)c21 (configuration not stated) | 4.97%
96 | CCOCC1CN(C2CCCC2)Cc2cnn(CC3CCOCC3)c21 (configuration not stated) | 2.06%
97 | O=c1ccc2c(n1Cc1ccncc1)CCN(Cc1ccoc1)CC2 | 1.47%
98 | CCN1CCn2cc(CNC(=O)c3cnn(C)c3)nc2C1 | -110%
99 | c1cncc(OC[C@]23COC[C@H]2CN(Cc2ccsc2)C3)c1 | -129%
100 | c1cncc(OC[C@]23COC[C@H]2CN(Cc2nccs2)C3)c1 | -120%
101 | Cn1cc(C(=O)NCc2cn3c(n2)CN(CC2CCCC2)CC3)cn1 | -112%
102 | CCN1CCC2(CC1)CC(NCc1cccs1)c1ccccc1O2 (configuration not stated) | -5.71%
103 | c1nc(CN2CCC3(CC2)COCCN3CC2CC2)c[nH]1 | -18.8%
104 | Cn1ncc2c1C(COCC1CC1)N(Cc1ccoc1)CC2 (configuration not stated) | -19.6%
105 | Cc1cnc(N2C[C@H]3C[C@H](C(=O)N4CCN(C)CC4)N(C)[C@H]3C2)nc1 | -9.1%
106 | Fc1cccc(O[C@@H]2C[C@H]3CN(Cc4ccncc4)CCN3C2)c1 | -15.6%
107 | CC(C)N1[C@H](Cn2cccn2)C[C@@H]2CN(Cc3ccoc3)CC[C@@H]21 | -13.4%
